Data from patent US20030225152A1, “3-(Arylamino)methylene-1, 3-dihydro-2h-indol-2-ones as kinase inhibitors” (priority 2001, published 2003).

Columns and labels:
[1] = tested on: Laser-induced Choroidal Neovascularization (CNV); assay: Laser-induced Choroidal Neovascularization (CNV) in Rat (CNV Assay); assay type: in vivo
Method: Laser-induced Choroidal Neovascularization (CNV) in Rat (CNV Assay). CNV was induced and quantified in this model as previously described (Edelman and Castro. Exp. Eye Res. 2000; 71:523-533). On day 0, male Brown Norway rats (200-300 g) were anesthetized with 100 mg/kg Ketamine and 10 mg/kg Xylazine, and pupils were dilated with 1% Tropicamide. Using the blue-green setting of a Coherent Novus Argon Laser, 3 laser bums (90 mW for 0.1 s; 100 μm diameter) were given to each eye between the retinal vessels around the optic nerve head. […]
On day 10, rats were sacrificed with 100% CO2, and blood vessels were labeled by vascular perfusion with 10 mg/ml FITC-dextran (MW 2×10^6). Using an epifluorescence microscope (20×) coupled to a spot digital camera and a PC, images were obtained from the flat mounts of the RPE-choroid-sclera from each eye, and the area occupied by hyperfluorescent neovessels within each laser lesion was measured using ImagePro 4 software.
(§1) To determine the dose required for 50% inhibition (ID50), the percent inhibition data was plotted as a function of oral dose, using the ‘best-fit’ analysis within MicroSoft Excel software. The ID50 value was verified visually by using the plotted data (horizontal line from 50% y value, at intersection with best-fit line drop vertical line to x axis (dose)).

[2] = biological target: T1, cytoplasmic domain of the human VEGF receptor (VEGFR-2) (Homo sapiens, UniProt P35968); assay: KDR Assay; assay type: biochemical; conditions: His-VEGFR-2; 3.6 μM ATP
T1 construct: The cytoplasmic domain of the human VEGF receptor (VEGFR-2) was expressed as a Histidine-tagged fusion protein; Histidine tag
T1 sequence (P35968 786-1356): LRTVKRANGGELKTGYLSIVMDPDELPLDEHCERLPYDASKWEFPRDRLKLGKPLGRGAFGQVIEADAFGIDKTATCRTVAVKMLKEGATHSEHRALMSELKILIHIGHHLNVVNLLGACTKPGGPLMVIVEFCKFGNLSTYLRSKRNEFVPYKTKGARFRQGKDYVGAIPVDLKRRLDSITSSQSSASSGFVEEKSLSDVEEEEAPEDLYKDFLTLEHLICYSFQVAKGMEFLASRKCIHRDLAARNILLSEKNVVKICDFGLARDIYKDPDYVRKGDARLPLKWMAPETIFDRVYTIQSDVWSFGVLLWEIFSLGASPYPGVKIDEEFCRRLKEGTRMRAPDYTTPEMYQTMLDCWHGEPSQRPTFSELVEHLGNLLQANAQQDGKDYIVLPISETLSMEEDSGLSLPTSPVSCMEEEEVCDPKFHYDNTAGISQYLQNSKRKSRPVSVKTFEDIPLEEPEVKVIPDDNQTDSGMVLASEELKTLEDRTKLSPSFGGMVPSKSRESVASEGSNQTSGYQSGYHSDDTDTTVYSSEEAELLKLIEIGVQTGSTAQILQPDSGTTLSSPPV
Summary of the method: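 IC50 taken from blank-corrected OD492 curves of an anti-phosphotyrosine peroxidase ELISA. Reaction: 10 min, 25 °C, 3.6 μM ATP, 50 mM Hepes pH 7.4 with 20 mM MgCl2, 0.1 mM MnCl2 and 5% DMSO, on poly-Glu-Tyr-coated wells, started with insect-cell-expressed His-VEGFR-2 cytoplasmic domain.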

[3] = tested on: VEGF-induced EBD extravasation; assay: VEGF-induced Dermal Extravasation in Guinea Pig (Miles Assay); assay type: in vivo
Method: VEGF-induced Dermal Extravasation in Guinea Pig (Miles Assay). Male Hartley guinea pigs (300-600 g) were anesthetized with isofluorane, sheared, and given a single dose of drug or the respective vehicle. The guinea pigs were dosed orally unless indicated otherwise in Table 3. Ten minutes prior to the end of drug treatment, guinea pigs were anesthetized with isofluorane, and 0.5% Evans blue dye (EBD) in PBS (13-15 mg/kg dose of EBD) was injected intravenously. After 5 minutes, triplicate intradermal injections of 100 ng rhVEGF165 in 100 μl PBS and of 100 μl PBS alone were administered on the flank. After 20 minutes, each animal was euthanized with Pentosol, and the skin containing the intradermal injection sites was removed for image analysis.
Using an analog video camera coupled to a PC, an image of each trans-illuminated skin sample was captured, and the integrated optical density of each injection site was measured using ImagePro 4. For each skin sample, the difference between the mean optical density of the VEGF sites and mean optical density of the PBS sites is the measure of VEGF-induced EBD extravasation in that animal. These measured values were averaged per study group to determine the mean VEGF-induced EBD extravasation for each experimental condition, and the group means were then compared to assess inhibition of VEGF-induced EBD extravasation in the drug-treated groups relative to the vehicle-treated controls.
as §1

[4] = tested on: VEGF induced increases in intracellular calcium levels in HUVEC (human umbilical vein endothelial cells); assay: VEGF Stimulated Ca++ Signal in vitro (FLIPR); assay type: cell-based; conditions: VEGF 5 ng/mL; for IC50: 0.01 to 10.0 μM
Summary of the method: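 IC50 values derive from % inhibition of the VEGF (5 ng/mL) calcium response, taken as max-min fluorescence at 516 nm in Fluo-4-loaded HUVEC. Compounds (0.1% DMSO final) were added 30 min before stimulation, at 10 μM or across 0.01–10.0 μM.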

CC1CN(c2ccc(NC=C3C(=O)Nc4ccccc43)cc2)CC(C)O1 (stereo not drawn) [Example 159, 3-{[4-(2,6-Dimethyl-morpholin-4-yl)-phenylamino]-methylene}-1,3-dihydro-indol-2-one]
CNV Assay % inhibition ([1]; 100 mg/kg (sid), 10% DMAC, 10% NMP, 80% PEG400, oral): 41% | IC50 [2]: 350 nM | Miles Assay % inhibition ([3]; 75 mg/kg, PEG400, oral): 91% | IC50 [4]: 580 nM | inhibition at 10 µM ([4]; Homo sapiens): 97.4% | IC50 ([4]; Homo sapiens): ≤ 1000 nM

O=C1Nc2ccccc2C1=CNc1ccc(NCCN2CCOCC2)cc1 [Example 235, 3-{[4-(2-Morpholin-4-yl-ethylamino)-phenylamino]-methylene}-1,3-dihydro-indol-2-one]
CNV Assay % inhibition ([1]; 40 mg/kg (sid), corn oil, oral): 63% | IC50 [2]: 240 nM | Miles Assay % inhibition ([3]; 75 mg/kg, corn oil, oral): 99% | inhibition at 10 µM ([4]; Homo sapiens): 98.2%

O=C1Nc2cc(F)ccc2C1=CNc1ccc(OCCCN2CCCCC2)cc1 [Example 239, 6-Fluoro-3-{[4-(3-piperidin-1-yl-propoxy)-phenylamino]-methylene}-1,3-dihydro-indol-2-one]
CNV Assay % inhibition ([1]; 40 mg/kg (sid), corn oil, oral): 56% | IC50 [2]: 150 nM | Miles Assay % inhibition ([3]; 75 mg/kg, corn oil, oral): 100% | inhibition at 10 µM ([4]; Homo sapiens): 97.7%

CCN(CC)CCCOc1ccc(NC=C2C(=O)Nc3cccc(C)c32)cc1 [Example 231, 3-{[4-(3-Diethylamino-propoxy)-phenylamino]-methylene}-4-methyl-1,3-dihydro-indol-2-one]
CNV Assay % inhibition ([1]; 80 mg/kg (sid), corn oil, oral): 85% | IC50 [2]: 70 nM | Miles Assay % inhibition ([3]; 75 mg/kg, corn oil, oral): 93% | inhibition at 10 µM ([4]; Homo sapiens): 93.3%

CN1CCN(CCCCOc2ccc(NC=C3C(=O)Nc4ccccc43)cc2)CC1 [Example 208, 3-({4-[4-(4-Methyl-piperazin-1-yl)-butoxy]-phenylamino}-methylene)-1,3-dihydro-indol-2-one]
IC50 [2]: 260 nM | Miles Assay % inhibition ([3]; 75 mg/kg, corn oil, oral): 32% | IC50 [4]: 530 nM | inhibition at 10 µM ([4]; Homo sapiens): 99% | IC50 ([4]; Homo sapiens): ≤ 1000 nM

O=C1Nc2ccccc2C1=CNc1ccc(OCCCCN2CCCCC2)cc1 [Example 209, 3-{[4-(4-Piperidin-1-yl-butoxy)-phenylamino]-methylene}-1,3-dihydro-indol-2-one]
CNV Assay % inhibition ([1]; 80 mg/kg (sid), corn oil, oral): 95% | IC50 [2]: 240 nM | Miles Assay % inhibition ([3]; 75 mg/kg, PEG400, oral): 79% | Miles Assay % inhibition ([3]; 75 mg/kg, corn oil, oral): 84% | inhibition at 10 µM ([4]; Homo sapiens): 98.6%

Cc1cccc2c1C(=CNc1ccc(N3CC(C)OC(C)C3)cc1)C(=O)N2 (stereo not drawn) [Example 220, 3-{[4-(2,6-Dimethyl-morpholin-4-yl)-phenylamino]-methylene}-4-methyl-1,3-dihydro-indol-2-one]
IC50 [2]: 60 nM | Miles Assay % inhibition ([3]; 75 mg/kg, PEG400, oral): 39% | inhibition at 10 µM ([4]; Homo sapiens): 94.9%

CCN(CC)CCCOc1ccc(NC=C2C(=O)Nc3cc(F)ccc32)cc1 [Example 234, 3-{[4-(3-Diethylamino-propoxy)-phenylamino]-methylene}-6-fluoro-1,3-dihydro-indol-2-one]
CNV Assay % inhibition ([1]; 8.6 mg/kg (sid), corn oil, oral): 18% | CNV Assay % inhibition ([1]; 35 mg/kg (sid), corn oil, oral): 76% | CNV Assay % inhibition ([1]; 80 mg/kg (sid), corn oil, oral): 97% | CNV Assay ID50 ([1]; oral dose for 50% inhibition): 19 mg/kg | IC50 [2]: 110 nM | Miles Assay % inhibition ([3]; 75 mg/kg, corn oil, oral): 95% | inhibition at 10 µM ([4]; Homo sapiens): 96.1%

O=C1Nc2ccccc2C1=CNc1ccc(N2CCOCC2)cc1 [Example 40]
CNV Assay % inhibition ([1]; 20 mg/kg (bid), PEG400, oral): 95% | CNV Assay % inhibition ([1]; 20 mg/kg (sid), PEG400, oral): 54% | CNV Assay % inhibition ([1]; 40 mg/kg (sid), PEG400, oral): 96% | CNV Assay % inhibition ([1]; 50 mg/kg (bid), corn oil, oral): 92% | CNV Assay % inhibition (toxicity noted) ([1]; 100 mg/kg (sid), PEG400, oral): toxic | CNV Assay % inhibition ([1]; 100 mg/kg (sid), corn oil, oral): 74% | CNV Assay ID50 (mg/kg) ([1]; oral dose for 50% inhibition): ˜20 mg/kg | IC50 [2]: 250 nM | Miles Assay % inhibition ([3]; 1 mg/kg, I.V. bolus in 20% methyl cyclodextrin, preincubation period 0.5 h): 0% | Miles Assay % inhibition ([3]; 1 mg/kg, I.V. bolus in 20% methyl cyclodextrin, preincubation period 1 h): 0% | Miles Assay % inhibition ([3]; 1 mg/kg, I.V. bolus in 20% methyl cyclodextrin, preincubation period 2 h): 0% | Miles Assay % inhibition ([3]; 10 mg/kg, 43% methyl cyclodextrin, preincubation period 1 h): 6% | Miles Assay % inhibition ([3]; 75 mg/kg, PEG400, oral): 100% | Miles Assay % inhibition ([3]; 75 mg/kg, corn oil, oral): 47% | Miles Assay % inhibition ([3]; 75 mg/kg, homogenized corn oil, oral): 40% | Miles Assay % inhibition ([3]; 75 mg/kg, micronized corn oil, oral): 52% | Miles Assay ID50 ([3]; oral dose for 50% inhibition): 18 mg/kg | inhibition at 10 µM ([4]; Homo sapiens): 96.7%

O=C1Nc2ccccc2C1=CNc1ccc(OCCCCN2CCOCC2)cc1 [Example 206, 3-{[4-(4-Morpholin-4-yl-butoxy)-phenylamino]-methylene}-1,3-dihydro-indol-2-one]
IC50 [2]: 240 nM | Miles Assay % inhibition ([3]; 75 mg/kg, corn oil, oral): 74% | IC50 [4]: 670 nM | inhibition at 10 µM ([4]; Homo sapiens): 96.3% | IC50 ([4]; Homo sapiens): ≤ 1000 nM

CCN(CC)CCCOc1ccc(NC=C2C(=O)Nc3ccccc32)cc1 [Example 214, 3-{[14-(3-Diethylamino-propoxy)-phenylamino]-methylene}-1,3-dihydro-indol-2-one]
IC50 [2]: 330 nM | Miles Assay % inhibition ([3]; 75 mg/kg, PEG400, oral): 61% | Miles Assay % inhibition ([3]; 75 mg/kg, corn oil, oral): 78% | inhibition at 10 µM ([4]; Homo sapiens): 97.3%

O=C1Nc2cc(F)ccc2C1=CNc1ccc(NCCN2CCOCC2)cc1 [Example 243, 6-Fluoro-3-{[4-(2-morpholin-4-yl-ethylamino)-phenylamino]-methylene}-1,3-dihydro-indol-2-one]
IC50 [2]: 110 nM | Miles Assay % inhibition ([3]; 75 mg/kg, corn oil, oral): 100% | inhibition at 10 µM ([4]; Homo sapiens): 95.6%

O=C1Nc2ccccc2C1=CNc1ccc(OCCCN2CCCCC2)cc1 [Example 218, 3-{[4-(3-Piperidin-1-yl-propoxy)-phenylamino]-methylene}-1,3-dihydro-indol-2-one]
CNV Assay % inhibition ([1]; 9.3 mg/kg (sid), corn oil, oral): 33% | CNV Assay % inhibition ([1]; 38.5 mg/kg (sid), corn oil, oral): 68% | CNV Assay % inhibition ([1]; 80 mg/kg (sid), corn oil, oral): 99% | CNV Assay ID50 ([1]; oral dose for 50% inhibition): 17 mg/kg | IC50 [2]: 170 nM | Miles Assay % inhibition ([3]; 75 mg/kg, PEG400, oral): 99% | Miles Assay % inhibition ([3]; 75 mg/kg, corn oil, oral): 97% | inhibition at 10 µM ([4]; Homo sapiens): 98.1%

Nc1cccc(NC=C2C(=O)Nc3ccccc32)c1 [Example 211, 3-[(3-Amino-phenylamino)-methylene]-1,3-dihydro-indo1-2-one]
IC50 [2]: 460 nM | Miles Assay % inhibition ([3]; 75 mg/kg, PEG400, oral): 38% | IC50 [4]: 660 nM | inhibition at 10 µM ([4]; Homo sapiens): 96.7% | IC50 ([4]; Homo sapiens): ≤ 1000 nM
